From patent publication US8822446B2, “Pyrrolopyridine inhibitors of kinases” (AbbVie Inc., priority 2010, dated 2014)
pKi: −log10 of the molar value.

Molecular target: T1, Cdc7 (BEV coexpressed huCDC7/DBF4) (Homo sapiens, UniProt O00311)
T1 construct: made in house; host or cells: baculovirus expression vector (BEV) co-expression
Assay: Cdc7 enzyme inhibition assay ([33P]-ATP, biotinylated peptide substrate, FlashPlate)
Type: biochemical
Settings: Ki generated from IC50 assuming ATP-competitive inhibition; 1 μM ATP, apparent ATP Km 0.7 μM; 1 hr reaction
Description: This example describes the assays that may be used to identify compounds having kinase activity.
Cdc7 (BEV coexpressed huCDC7/DBF4) is prepared internally. Cdc7 assays are conducted as follows with final concentrations as listed. In 384-well v-bottom polypropylene plates, 6 μL compound (2% DMSO), is mixed with 6 μL of Cdc7 (2 ug/mL), and Jerini peptide substrate A-A11 (biotin-C6linker-[…]) (2 μM), followed by immediate initiation with 6 μL […] (1 μM, 20 mCi/μmol) using a reaction buffer comprising 25 mM HEPES, pH 7.5, 1 mM DTT, 10 mM MgCl2, 100 μM, Na3VO4, 0.075 mg/ml Triton X-100. Reactions are quenched after 1 hr by the addition of 90 μL stop buffer (50 mM EDTA, 2M NaCl).
Table 1 depicts enzyme inhibition data (Ki) for exemplary compounds.

T1 sequence (O00311 whole entry): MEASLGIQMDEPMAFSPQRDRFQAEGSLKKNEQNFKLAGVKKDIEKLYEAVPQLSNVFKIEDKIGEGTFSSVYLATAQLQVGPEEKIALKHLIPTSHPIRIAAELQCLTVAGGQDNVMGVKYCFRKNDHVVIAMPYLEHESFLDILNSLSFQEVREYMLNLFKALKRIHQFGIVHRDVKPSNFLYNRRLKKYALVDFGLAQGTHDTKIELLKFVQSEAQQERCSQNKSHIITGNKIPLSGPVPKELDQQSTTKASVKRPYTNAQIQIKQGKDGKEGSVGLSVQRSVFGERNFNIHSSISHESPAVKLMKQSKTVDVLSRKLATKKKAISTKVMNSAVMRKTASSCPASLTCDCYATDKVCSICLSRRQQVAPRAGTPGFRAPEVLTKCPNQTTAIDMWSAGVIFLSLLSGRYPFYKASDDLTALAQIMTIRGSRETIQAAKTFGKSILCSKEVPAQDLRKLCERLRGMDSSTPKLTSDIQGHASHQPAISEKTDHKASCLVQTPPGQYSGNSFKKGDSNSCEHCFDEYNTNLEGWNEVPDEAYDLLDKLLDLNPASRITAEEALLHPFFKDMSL
T1 sequence (Q9UBU7 whole entry partner): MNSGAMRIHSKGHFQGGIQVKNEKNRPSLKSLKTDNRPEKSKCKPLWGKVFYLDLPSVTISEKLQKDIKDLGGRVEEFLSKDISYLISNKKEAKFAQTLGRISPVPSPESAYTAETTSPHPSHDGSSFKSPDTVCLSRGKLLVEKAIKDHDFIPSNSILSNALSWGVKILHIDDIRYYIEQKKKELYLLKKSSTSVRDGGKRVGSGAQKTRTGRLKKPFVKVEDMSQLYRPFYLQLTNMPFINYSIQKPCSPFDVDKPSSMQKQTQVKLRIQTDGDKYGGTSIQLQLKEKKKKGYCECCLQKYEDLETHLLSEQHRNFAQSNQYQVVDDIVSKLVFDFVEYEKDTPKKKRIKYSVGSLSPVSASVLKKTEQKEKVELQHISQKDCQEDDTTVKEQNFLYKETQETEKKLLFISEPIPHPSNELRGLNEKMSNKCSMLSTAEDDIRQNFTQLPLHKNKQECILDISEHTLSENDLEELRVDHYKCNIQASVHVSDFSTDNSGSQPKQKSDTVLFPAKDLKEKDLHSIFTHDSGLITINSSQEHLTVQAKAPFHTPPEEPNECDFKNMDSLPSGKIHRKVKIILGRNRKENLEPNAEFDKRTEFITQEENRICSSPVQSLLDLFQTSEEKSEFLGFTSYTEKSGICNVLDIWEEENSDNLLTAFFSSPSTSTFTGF

pKi | Structure (SMILES)
> 8.00 | O=c1cc(-c2c[nH]c3ncccc23)nc(NCc2cccc(O)c2)[nH]1 [Example 23, 2-[(3-hydroxybenzyl)amino]-6-(1H-pyrrolo[2,3-b]pyridin-3-yl)pyrimidin-4(3H)-one]
> 8.00 | CS(=O)(=O)c1cccc(-c2cc(-c3c[nH]c4ncccc34)cc(=O)[nH]2)c1 [Example 51, 6-[3-(methylsulfonyl)phenyl]-4-(1H-pyrrolo[2,3-b]pyridin-3-yl)pyridin-2(1H)-one]
> 8.00 | O=c1cc(-c2c[nH]c3ncccc23)nc(NC2CCCC2)[nH]1 [Example 26, 2-(cyclopentylamino)-6-(1H-pyrrolo[2,3-b]pyridin-3-yl)pyrimidin-4(3H)-one]
> 8.00 | Cc1c(Cl)cccc1-c1cc(-c2c[nH]c3ncccc23)cc(=O)[nH]1 [Example 48, 6-(3-chloro-2-methylphenyl)-4-(1H-pyrrolo[2,3-b]pyridin-3-yl)pyridin-2(1H)-one]
> 8.00 | COCCN(CCOC)c1nc(-c2c[nH]c3ncccc23)cc(=O)[nH]1 [Example 17, 2-[bis(2-methoxyethyl)amino]-6-(1H-pyrrolo[2,3-b]pyridin-3-yl)pyrimidin-4(3H)-one]
> 8.00 | O=c1cc(-c2c[nH]c3ncccc23)cc(-c2cn[nH]c2)[nH]1 [Example 52, 6-(1H-pyrazol-4-yl)-4-(1H-pyrrolo[2,3-b]pyridin-3-yl)pyridin-2(1H)-one]
> 8.00 | O=c1cc(-c2c[nH]c3ncccc23)cc(-c2cccc(C(F)(F)F)c2)[nH]1 [Example 36, 4-(1H-pyrrolo[2,3-b]pyridin-3-yl)-6-[3-(trifluoromethyl)phenyl]pyridin-2(1H)-one]
> 8.00 | O=C(O)C1CCN(c2nc(-c3c[nH]c4ncccc34)cc(=O)[nH]2)CC1 [Example 25, 1-[6-oxo-4-(1H-pyrrolo[2,3-b]pyridin-3-yl)-1,6-dihydropyrimidin-2-yl]piperidine-4-carboxylic acid]
> 8.00 | CN1CCC(Nc2nc(-c3c[nH]c4ncccc34)cc(=O)[nH]2)CC1 [Example 29, 2-[(1-methylpiperidin-4-yl)amino]-6-(1H-pyrrolo[2,3-b]pyridin-3-yl)pyrimidin-4(3H)-one]
> 8.00 | O=c1cc(-c2c[nH]c3ncccc23)nc(Nc2ccccc2)[nH]1 [Example 3, 2-anilino-6-(1H-pyrrolo[2,3-b]pyridin-3-yl)pyrimidin-4(3H)-one]
> 8.00 | O=c1cc(-c2c[nH]c3ncccc23)cc(Nc2ccccc2)[nH]1 [Example 55, 6-anilino-4-(1H-pyrrolo[2,3-b]pyridin-3-yl)pyridin-2(1H)-one]
> 8.00 | O=c1cc(-c2c[nH]c3ncccc23)cc(-c2ccccc2)[nH]1 [Example 34, 6-phenyl-4-(1H-pyrrolo[2,3-b]pyridin-3-yl)pyridin-2(1H)-one]
> 8.00 | CN(c1nc(-c2c[nH]c3ncccc23)cc(=O)[nH]1)C1CCCCC1 [Example 11, 2-[cyclohexyl(methyl)amino]-6-(1H-pyrrolo[2,3-b]pyridin-3-yl)pyrimidin-4(3H)-one]
> 8.00 | COC1CCN(c2nc(-c3c[nH]c4ncccc34)cc(=O)[nH]2)CC1 [Example 27, 2-(4-methoxypiperidin-1-yl)-6-(1H-pyrrolo[2,3-b]pyridin-3-yl)pyrimidin-4(3H)-one]
> 8.00 | O=c1cc(-c2c[nH]c3ncccc23)nc(NCCCN2CCOCC2)[nH]1 [Example 22, 2-{[3-(morpholin-4-yl)propyl]amino}-6-(1H-pyrrolo[2,3-b]pyridin-3-yl)pyrimidin-4(3H)-one]
> 8.00 | NC1CCCCC1Nc1nc(-c2c[nH]c3ncccc23)cc(=O)[nH]1 (stereo not shown) [Example 13, 2-[(2-aminocyclohexyl)amino]-6-(1H-pyrrolo[2,3-b]pyridin-3-yl)pyrimidin-4(3H)-one]
> 8.00 | Cc1ccccc1-c1cc(-c2c[nH]c3ncccc23)cc(=O)[nH]1 [Example 38, 6-(2-methylphenyl)-4-(1H-pyrrolo[2,3-b]pyridin-3-yl)pyridin-2(1H)-one]
> 8.00 | O=c1cc(-c2c[nH]c3ncccc23)nc(-c2ccccc2)[nH]1 [Example 32, 2-phenyl-6-(1H-pyrrolo[2,3-b]pyridin-3-yl)pyrimidin-4(3H)-one]
> 8.00 | O=c1cc(-c2c[nH]c3ncccc23)nc(NCC2CCCO2)[nH]1 (stereo not shown) [Example 10, 6-(1H-pyrrolo[2,3-b]pyridin-3-yl)-2-[(tetrahydrofuran-2-ylmethyl)amino]pyrimidin-4(3H)-one]
> 8.00 | O=c1cc(-c2c[nH]c3ncccc23)nc(NCc2ccccc2)[nH]1 [Example 2, 2-(benzylamino)-6-(1H-pyrrolo[2,3-b]pyridin-3-yl)pyrimidin-4(3H)-one]

pKi | Structure (SMILES)
> 8.00 | O=c1cc(-c2c[nH]c3ncccc23)nc(N2CCOCC2)[nH]1 [Example 24, 2-(morpholin-4-yl)-6-(1H-pyrrolo[2,3-b]pyridin-3-yl)pyrimidin-4(3H)-one]
> 8.00 | O=c1cc(-c2c[nH]c3ncccc23)nc(NC2CCOCC2)[nH]1 [Example 9, 6-(1H-pyrrolo[2,3-b]pyridin-3-yl)-2-(tetrahydro-2H-pyran-4-ylamino)pyrimidin-4(3H)-one]
> 8.00 | C[C@H](Nc1nc(-c2c[nH]c3ncccc23)cc(=O)[nH]1)c1ccccc1 [Example 8, 2-{[(1S)-1-phenylethyl]amino}-6-(1H-pyrrolo[2,3-b]pyridin-3-yl)pyrimidin-4(3H)-one]
> 8.00 | O=C(N[C@H]1CC[C@H](Nc2cc(-c3c[nH]c4ncccc34)cc(=O)[nH]2)CC1)C1CC1 [Example 58, N-(trans-4-{[6-oxo-4-(1H-pyrrolo[2,3-b]pyridin-3-yl)-1,6-dihydropyridin-2-yl]amino}cyclohexyl)cyclopropanecarboxamide]
> 8.00 | O=C(N[C@H]1CC[C@H](Nc2cc(-c3c[nH]c4ncccc34)cc(=O)[nH]2)CC1)C1CN(Cc2ccc(F)cc2)C1 [Example 59, 1-(4-fluorobenzyl)-N-(trans-4-{[6-oxo-4-(1H-pyrrolo[2,3-b]pyridin-3-yl)-1,6-dihydropyridin-2-yl]amino}cyclohexyl)azetidine-3-carboxamide]
> 8.00 | COc1nccc(-c2cc(-c3c[nH]c4ncccc34)cc(=O)[nH]2)c1Cl [Example 49, 3′-chloro-2′-methoxy-4-(1H-pyrrolo[2,3-b]pyridin-3-yl)-2,4′-bipyridin-6(1H)-one]
> 8.00 | Cc1ncccc1-c1cc(-c2c[nH]c3ncccc23)cc(=O)[nH]1 [Example 53, 2′-methyl-4-(1H-pyrrolo[2,3-b]pyridin-3-yl)-2,3′-bipyridin-6(1H)-one]
> 8.00 | NCCOCCOCCNc1nc(-c2c[nH]c3ncccc23)cc(=O)[nH]1 [Example 31, 2-({2-[2-(2-aminoethoxy)ethoxy]ethyl}amino)-6-(1H-pyrrolo[2,3-b]pyridin-3-yl)pyrimidin-4(3H)-one]
> 8.00 | O=c1cc(-c2c[nH]c3ncccc23)nc(NCc2ccccc2C(F)(F)F)[nH]1 [Example 20, 6-(1H-pyrrolo[2,3-b]pyridin-3-yl)-2-{[2-(trifluoromethyl)benzyl]amino}pyrimidin-4(3H)-one]
> 8.00 | O=c1cc(-c2c[nH]c3ncccc23)cc(-c2ccc3c(c2)OCO3)[nH]1 [Example 39, 6-(1,3-benzodioxol-5-yl)-4-(1H-pyrrolo[2,3-b]pyridin-3-yl)pyridin-2(1H)-one]
> 8.00 | Cc1cccc(-c2nc(-c3c[nH]c4ncccc34)cc(=O)[nH]2)c1 [Example 61, 2-(3-methylphenyl)-6-(1H-pyrrolo[2,3-b]pyridin-3-yl)pyrimidin-4(3H)-one]
> 8.00 | O=c1cc(-c2c[nH]c3ncccc23)nc(N2CCC(O)CC2)[nH]1 [Example 7, 2-(4-hydroxypiperidin-1-yl)-6-(1H-pyrrolo[2,3-b]pyridin-3-yl)pyrimidin-4(3H)-one]
> 8.00 | Cc1ccc(-c2nc(-c3c[nH]c4ncccc34)cc(=O)[nH]2)cc1 [Example 60, 2-(4-methylphenyl)-6-(1H-pyrrolo[2,3-b]pyridin-3-yl)pyrimidin-4(3H)-one]
> 8.00 | COc1cccc(Nc2cc(-c3c[nH]c4ncccc34)cc(=O)[nH]2)c1 [Example 54, 6-[(3-methoxyphenyl)amino]-4-(1H-pyrrolo[2,3-b]pyridin-3-yl)pyridin-2(1H)-one]
> 8.00 | Cc1cccc(-c2nc(-c3c[nH]c4ncccc34)cc(=O)[nH]2)c1C [Example 62, 2-(2,3-dimethylphenyl)-6-(1H-pyrrolo[2,3-b]pyridin-3-yl)pyrimidin-4(3H)-one]
> 8.00 | NCCCOc1cccc(CNc2nc(-c3c[nH]c4ncccc34)cc(=O)[nH]2)c1 [Example 63, 2-{[3-(3-aminopropoxy)benzyl]amino}-6-(1H-pyrrolo[2,3-b]pyridin-3-yl)pyrimidin-4(3H)-one]
> 8.00 | O=c1cc(-c2c[nH]c3ncccc23)nc(NC2CCCCC2O)[nH]1 (stereo not shown) [Example 28, 2-[(2-hydroxycyclohexyl)amino]-6-(1H-pyrrolo[2,3-b]pyridin-3-yl)pyrimidin-4(3H)-one]
> 8.00 | COc1cccc(-c2cc(-c3c[nH]c4ncccc34)cc(=O)[nH]2)c1F [Example 44, 6-(2-fluoro-3-methoxyphenyl)-4-(1H-pyrrolo[2,3-b]pyridin-3-yl)pyridin-2(1H)-one]
> 8.00 | O=c1cc(-c2c[nH]c3ncccc23)cc(-c2ccsc2)[nH]1 [Example 40, 4-(1H-pyrrolo[2,3-b]pyridin-3-yl)-6-(3-thienyl)pyridin-2(1H)-one]
> 8.00 | N[C@H]1CC[C@H](Nc2cc(-c3c[nH]c4ncccc34)cc(=O)[nH]2)CC1 [Example 56, 6-[(trans-4-aminocyclohexyl)amino]-4-(1H-pyrrolo[2,3-b]pyridin-3-yl)pyridin-2(1H)-one]
